Experimental data: PubChem BioAssay (NCI)
Several values for one entry are separate records, joined by “and”; a condition that tells them apart may be missing. Equal entries are not always repeated.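 1) Cells in 96-well plates. 2) Compound, 48 h, 5 concentrations. 3) Linear interpolation between surrounding doses. 4) Unreached endpoint = highest concentration. GI50: concentration for 50% inhibition of growth. TGI: total growth inhibition.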

Assays:
Assay in all cases: inhibition of tumour cell growth, NCI panel, 48 h
[1] = tested on: UACC-62 melanoma
[2] = tested on: OVCAR-4 ovarian
[3] = tested on: CCRF-CEM leukemia
[4] = tested on: CAKI-1 renal
[5] = tested on: BT-549 breast
[6] = tested on: OVCAR-3 ovarian
[7] = tested on: U251 CNS
[8] = tested on: A549 NSCLC
[9] = tested on: NCI-H460 lung
[10] = tested on: MALME-3M melanoma
[11] = tested on: IGROV1 ovarian
[12] = tested on: MOLT-4 leukemia
[13] = tested on: HCT-15 colon
[14] = tested on: MDA-MB-435
[15] = tested on: UACC-257 melanoma
[16] = tested on: HCC-2998 colon
[17] = tested on: 786-0 renal
[18] = tested on: LOX IMVI melanoma
[19] = tested on: SF-295 CNS
[20] = tested on: SK-MEL-28 melanoma
[21] = tested on: NCI/ADR-RES ovarian
[22] = tested on: NCI-H522 lung
[23] = tested on: TK-10 renal
[24] = tested on: MCF7 breast
[25] = tested on: A498 renal
[26] = tested on: RPMI-8226 leukemia
[27] = tested on: MDA-N
[28] = tested on: SNB-75 CNS
[29] = tested on: ACHN renal
[30] = tested on: EKVX NSCLC
[31] = tested on: T-47D breast
[32] = tested on: RXF 393 renal
[33] = tested on: PC-3 prostate
[34] = tested on: SNB-19 CNS
[35] = tested on: SF-268 CNS
[36] = tested on: HCT-116 colon
[37] = tested on: SK-MEL-2 melanoma
[38] = tested on: K-562 leukemia
[39] = tested on: HL-60(TB) leukemia
[40] = tested on: OVCAR-8 ovarian
[41] = tested on: SN12C renal
[42] = tested on: NCI-H226 lung
[43] = tested on: KM12 colon
[44] = tested on: NCI-H23 lung
[45] = tested on: SW-620 colon
[46] = tested on: MDA-MB-231 breast
[47] = tested on: SF-539 CNS
[48] = tested on: HT29 colon
[49] = tested on: SK-MEL-5 melanoma
[50] = tested on: DU-145 prostate
[51] = tested on: HS 578T breast
[52] = tested on: OVCAR-5 ovarian
[53] = tested on: UO-31 renal
[54] = tested on: HOP-92 NSCLC
[55] = tested on: M14 melanoma
[56] = tested on: SR leukemia
[57] = tested on: SK-OV-3 ovarian
[58] = tested on: COLO 205 colon
[59] = tested on: HOP-62 NSCLC

Compound: Cc1ccc(NS(=O)(=O)c2cccc(C#N)c2)c2[nH]cc(C#N)c12
- GI50 [1]: 7.07 µM and 15.4 µM
- TGI [1]: 32.2 µM and 53.2 µM
- GI50 [2]: 2.65 µM and 8.22 µM
- TGI [2]: 87.2 µM and 51.2 µM
- GI50 [3]: 11.9 µM and 14.3 µM
- TGI [3]: > 100 µM
- GI50 [4]: 3.69 µM and 15.7 µM
- TGI [4]: > 96.8 µM
- TGI [5]: 65.8 µM and 48.4 µM
- GI50 [6]: 22 µM and 27.3 µM
- TGI [6]: 60.2 µM and > 94.7 µM
- GI50 [7]: 17.5 µM and 15.2 µM
- TGI [7]: > 100 µM
- GI50 [8]: 17.9 µM and 12.7 µM
- TGI [8]: > 100 µM
- GI50 [9]: 18.1 µM and 22.6 µM
- TGI [9]: > 100 µM
- GI50 [10]: 15.5 µM and 12.9 µM
- TGI [10]: 57.1 µM and 68.2 µM
- TGI [11]: > 100 µM
- GI50 [12]: 8.87 µM and 13.6 µM
- TGI [12]: > 100 µM
- GI50 [13]: 6.14 µM and 14.1 µM
- TGI [13]: > 100 µM
- GI50 [14]: 12.3 µM and 8.31 µM
- TGI [14]: 55.1 µM and 67.4 µM
- GI50 [15]: 21.9 µM and 22.5 µM
- TGI [15]: 69.1 µM and 84.7 µM
- GI50 [16]: 25.1 µM
- TGI [16]: > 100 µM
- GI50 [17]: 12 µM and 7.67 µM
- TGI [17]: 55.7 µM and > 100 µM
- GI50 [18]: 16.7 µM and 14.9 µM
- TGI [18]: > 100 µM
- GI50 [19]: 2.85 µM and 2.22 µM
- TGI [19]: 49.7 µM and 52.9 µM
- GI50 [20]: 20.2 µM and 7.55 µM
- TGI [20]: 98.5 µM and > 44.9 µM
- GI50 [21]: 14.2 µM and 2.49 µM
- TGI [21]: > 92.5 µM
- TGI [22]: 59.9 µM and 23.2 µM
- GI50 [23]: 24.6 µM and 22.4 µM
- TGI [23]: > 92.5 µM
- GI50 [24]: 2.53 µM and 16.8 µM
- TGI [24]: > 100 µM
- TGI [25]: 5.32 µM and 51.2 µM
- GI50 [26]: 18.1 µM and 10.5 µM
- TGI [26]: 76.6 µM and 52.2 µM
- GI50 [27]: 4.1 µM
- TGI [27]: > 91.6 µM
- GI50 [28]: 6.51 µM and 7.05 µM
- TGI [28]: 52.3 µM and 29.4 µM
- GI50 [29]: 12.6 µM and 16.3 µM
- TGI [29]: > 96.7 µM and 98.3 µM
- GI50 [30]: 26.6 µM
- TGI [30]: 80.9 µM
- GI50 [31]: 5.21 µM and 10.2 µM
- TGI [31]: > 86.4 µM
- GI50 [32]: 17.6 µM and 1.99 µM
- TGI [32]: 74.3 µM and 68.1 µM
- GI50 [33]: 12 µM and 19 µM
- TGI [33]: 98.4 µM and > 100 µM
- GI50 [34]: 16.1 µM and 24.6 µM
- TGI [34]: > 100 µM
- GI50 [35]: 35 µM and 30.9 µM
- TGI [35]: > 100 µM
- GI50 [36]: 0.146 µM and 0.157 µM
- TGI [36]: > 100 µM
- GI50 [37]: 22.5 µM and 15.1 µM
- TGI [37]: 59.7 µM and 52.4 µM
- GI50 [38]: 2.59 µM and 5.08 µM
- TGI [38]: > 100 µM
- GI50 [39]: 20.1 µM and 26.8 µM
- TGI [39]: 65.4 µM and > 82.2 µM
- GI50 [40]: 19.1 µM and 15.8 µM
- TGI [40]: > 100 µM and 69.3 µM
- GI50 [41]: 25.5 µM and 27.3 µM
- TGI [41]: > 94.7 µM
- GI50 [42]: 22.5 µM and 25.5 µM
- TGI [42]: > 96.4 µM
- GI50 [43]: > 51.5 µM and 23.2 µM
- TGI [43]: > 100 µM
- GI50 [44]: 27.5 µM and 27.7 µM
- TGI [44]: 84.6 µM and > 100 µM
- GI50 [45]: 0.76 µM and 1.7 µM
- TGI [45]: > 100 µM
- GI50 [46]: 13.6 µM and 22 µM
- TGI [46]: > 85 µM
- GI50 [47]: 16.8 µM and 21.5 µM
- TGI [47]: > 81.2 µM
- GI50 [48]: 33.5 µM and 12.5 µM
- TGI [48]: > 100 µM
- GI50 [49]: 15.6 µM and 17 µM
- TGI [49]: 33.5 µM and 43.3 µM
- GI50 [50]: 23.9 µM and 28.8 µM
- TGI [50]: > 100 µM
- GI50 [51]: 16.4 µM and 20 µM
- TGI [51]: 78.8 µM and > 96.3 µM
- GI50 [52]: 16.7 µM and 30.6 µM
- TGI [52]: > 92.7 µM
- GI50 [53]: 14.7 µM and 9.17 µM
- TGI [53]: 63.8 µM and 56.3 µM
- GI50 [54]: 7.78 µM and 12.8 µM
- TGI [54]: 38.1 µM and 48.2 µM
- GI50 [55]: 20 µM and 16.3 µM
- TGI [55]: > 100 µM
- GI50 [56]: 18.2 µM and 6.8 µM
- TGI [56]: > 100 µM
- GI50 [57]: 0.829 µM and 0.361 µM
- TGI [57]: 63.4 µM and 74.1 µM
- GI50 [58]: 14.2 µM and 1.51 µM
- TGI [58]: 53.7 µM and 37.3 µM
- GI50 [59]: 20.1 µM and 29.8 µM
- TGI [59]: 96.4 µM and > 100 µM
